The source of these data is PubChem BioAssay AID463204 (Broad Institute, 2010).

Calls of active or inactive are those of the source.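 The calls were made as follows: active = AC50 no more than ten times the top concentration tested, that is within one log above it; inconclusive = flat curve fit with activity between 30% and 70%, or invalid poor fit; inactive = AC50 beyond ten times the top tested dose.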

The assay concerns S. cerevisiae Mot1-301 ts growth rescue, BacTiter-Glo ATP luminescence. Nature of the assay: restored Mot1-301 yeast growth at 38.5C – whole organism, S. cerevisiae, Mot1-301 ts mutant, luminescence, dose retest, SUMOylation pathway inhibitor project, confirmation (AID 463204).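 Also: growth at restrictive 38.5 degrees C of Mot1-301 OY566 strain; actives raise luminescence by restoring growth of the ts mutant at high temperature.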
Turning to `CNC(=O)c1ccccc1NC(=O)c1c(O)c2c([nH]c1=O)CCCC2`, the AC50 is > 42 µM (inactive).
As for `COc1ccc(CCN2CC(C(=O)N(C)CC(=O)Nc3cccc(F)c3)CC2=O)cc1OC` (stereo not given), the figure is > 42 µM (inactive).
Turning to `Cc1c(C(=O)NC(=S)Nc2ccccc2N2CCCC2)cccc1[N+](=O)[O-]`, the AC50 is > 42 µM (inactive).
As for `CCCCOc1ccc(C(=O)Nc2ccc(CN3CCOCC3)cc2)cc1`, the AC50 was > 42 µM (inactive).
The value for `Cc1ccc(N(CC(=O)NC2CCCC2)C(=O)CCC(=O)Nc2ccccn2)cc1C` was > 42 µM (inactive); that for `O=C(NNC(=O)c1csc(N2CCOCC2)n1)c1ccc(Cl)nc1` was > 42 µM (inactive).
The value for `O=C(c1ccc(COc2ccccc2Cl)o1)N1N=C(C(F)F)CC1(O)C(F)F` (stereo not given) was > 42 µM (inactive).
Regarding `CC1CN(S(=O)(=O)c2cccc(C(=O)N=c3sccn3C)c2)CC(C)O1` (stereo not given), the AC50 was > 42 µM (inactive).
Turning to `CCC(C)[C@H](NC(=O)Nc1ccc(S(N)(=O)=O)cc1)C(=O)OC` (stereo not given in full), the AC50 was > 42 µM (inactive).
As for `O=C(CSc1nccc(=O)[nH]1)c1cc2ccccc2o1`, the figure is > 42 µM (inactive); as for `O=C(NCc1csc(-c2cccs2)n1)Nc1ccc(F)cc1F`, > 42 µM (inactive).
Consider `CC1CCN(CCCCOc2cccc(C(C)C)c2)CC1`, for which the AC50 is > 42 µM (inactive).
The value for `COc1ccc(NC(=S)Nc2ccccc2OC)c(OC)c1` was > 42 µM (inactive); that for `CC(C)CCn1c(=O)c2ccccc2c2ccccc2c1=O` was > 42 µM (inactive); that for `CCOc1cc(/C=C2\NC(=O)NC2=O)ccc1OC(C)C(=O)O` (stereo not given) was > 42 µM (inactive).
As for `CCOC(=O)c1ccc(NC(=O)c2c(NC(=O)CCC(=O)O)sc3c2CCCCC3)cc1`, the figure is > 42 µM (inactive); as for `O=C(c1ccc([N+](=O)[O-])o1)N1CCN(c2nc3c(Cl)cccc3s2)CC1`, 6.55 µM.
The value for `CCOC(=O)c1sc(N/N=C/c2ccc(N(C)C)cc2)nc1C` was > 42 µM (inactive); that for `C=CC(=O)NC1CC2CCC1(C)C2(C)C` (stereo not given) was > 42 µM (inactive).
`Cc1nn(C)cc1S(=O)(=O)Nc1ncccn1`: the AC50 is > 42 µM (inactive).
For the molecule `CC1CCN(C(=O)c2[nH]cnc2C(=O)NCC(=O)OCc2ccccc2)CC1`, the AC50 is > 42 µM (inactive).
As for `O=C(Nc1ccccc1F)C1CCN(C(=O)Cc2ccccc2)CC1`, the figure is > 42 µM (inactive).
As for `C=CCn1cc(C(C)=O)c(=O)[nH]c1=O`, the figure is > 42 µM (inactive); as for `CCCCNS(=O)(=O)c1ccc(OC)cc1`, > 42 µM (inactive); as for `COc1cc(/C=N/NC(=O)c2ccncc2)ccc1OC(=O)c1ccco1`, > 42 µM (inactive).
With `Nc1ncnc2nc(SCC(=O)N3CCN(c4ccccc4)CC3)[nH]c12`, the AC50 was > 42 µM (inactive).
The value for `O=C(/C=C/c1ccc(Cl)cc1Cl)Nc1cccc(S(=O)(=O)NC2=NCCCCC2)c1` was > 42 µM (inactive).
As for `CC(C)(C)n1nnnc1C(c1ccc(Cl)cc1)N(Cc1cccnc1)Cc1ccco1` (stereo not given), the figure is 7.98 µM; as for `COc1ccc(NC(=O)c2ccc(COc3ccccc3OC)o2)cc1OC`, > 42 µM (inactive).
On to `O=C1C2CCCCN2C(=O)N1CCCCN1CCN(c2ccccc2Oc2ccccc2)CC1` (stereo not given), for which the AC50 is > 42 µM (inactive).
The value for `COC(=O)c1ccc(CN2CCN(C3CCCCC3)C(CCO)C2)cc1` (stereo not given) was > 42 µM (inactive).
On to `CC1C(=O)CC(c2ccccc2)NC1c1ccccc1` (stereo not given), for which the AC50 is > 42 µM (inactive).
The value for `COc1ccc(Cl)cc1N(C(=O)c1ccco1)C(C(=O)NC1CCCC1)c1ccncc1` (stereo not given) was > 42 µM (inactive); that for `CCCCCCCN1C(Nc2ccccc2)=NC[C@@H]1CC(C)C` was > 21 µM (inactive).
The value for `CCOc1cc(C(N)=O)cc(Cl)c1OCc1ccccc1` was > 42 µM (inactive); that for `Nc1ccc(N2CCN(c3ccc(F)cc3)CC2)cc1` was > 42 µM (inactive); that for `Cc1cccc(NC(=S)NC(=O)/C=C/c2ccco2)c1` was > 42 µM (inactive).
As for `Cc1cc(-c2ccc(C(C)C)c(S(=O)(=O)N3CC(=O)Nc4ccccc43)c2)on1`, the figure is > 42 µM (inactive); as for `O=C(CCSc1ccccc1)NNC(=O)c1ccccc1F`, > 42 µM (inactive); as for `COC(=O)c1cccc(NC(=O)c2cccnc2)c1`, > 42 µM (inactive).
For `CCCCn1c(N)c(N(CC(C)C)C(=O)c2cc(-c3ccc(F)cc3)nc3ccccc23)c(=O)[nH]c1=O`, the AC50 was > 42 µM (inactive).
For the molecule `COc1ccc(C(=O)O/N=C(\N)c2ccccc2)cc1OC`, the AC50 was > 42 µM (inactive).
As for `COC(=O)c1sccc1NC(=S)N1CCCCC1`, the figure is > 42 µM (inactive).
As for `CCOC(=O)c1c(C)[nH]c2c1cc(O)c1ccccc12`, the AC50 is > 42 µM (inactive).
The value for `Cc1ccccc1-c1nc2ccc(Cl)cc2c(=O)n1O` was > 42 µM (inactive); that for `CC1=CS(=O)(=O)CC1Sc1ncn[nH]1` (stereo not given) was > 42 µM (inactive); that for `On1c(-c2ccccc2Cl)nc2ncccc21` was > 42 µM (inactive).
The value for `CCN(CC)S(=O)(=O)c1ccc(N2CCCC2)c(C(=O)OCC(=O)Nc2cc(C)on2)c1` was > 42 µM (inactive); that for `COc1cc(/C=N/NC(=O)c2cccc([N+](=O)[O-])c2)ccc1O` was > 42 µM (inactive); that for `Cc1nnc(NC(=O)c2cccc(S(=O)(=O)N3CCCC3)c2)s1` was > 42 µM (inactive).
The value for `COc1ccc(/C=C2\SC(=S)N(CCCC(=O)Nc3cc(C)on3)C2=O)cc1OC` was > 42 µM (inactive); that for `Cc1ccc(CNC(=O)CCn2cc(-c3ccc(C)cc3)nc2CCN)cc1` was > 42 µM (inactive); that for `Cc1nc(-c2ccncc2)sc1C(=O)Nc1ccc(Br)cc1` was > 42 µM (inactive).
Take `CCC(C)(C(=O)NC1CCCC1)N(C(=O)c1ccccn1)c1ccc(C)cc1` (stereo not given): the AC50 is > 42 µM (inactive).
As for `CCCNCC(O)COc1ccccc1C(=O)CCc1ccccc1` (stereo not given), the figure is > 42 µM (inactive); as for `Fc1ccc(-c2cc(C(F)(F)F)nc(NCc3cccs3)n2)cc1`, > 42 µM (inactive); as for `COc1ccc(NC(=O)c2ccccc2NC(=O)NC2CCCCC2)cc1`, > 42 µM (inactive).
As for `O=C1OCc2cc(NS(=O)(=O)c3cccs3)ccc21`, the figure is > 42 µM (inactive).
The value for `O=C(CSc1nnc(-c2ccc(Br)cc2)o1)Nc1cccc2ccccc12` was > 42 µM (inactive); that for `CCOC(=O)c1ccc(CNC(=O)C2CCCCC2C(=O)OCC(F)(F)F)o1` (stereo not given) was > 42 µM (inactive); that for `CC(=O)Nc1ccc(S(=O)(=O)Nc2ccc3c(c2)C(=O)OC3)cc1` was > 42 µM (inactive).
Take `CC(C)(C)n1cnc2cc(NC(=O)c3ccc(Cl)cc3)ccc21`: the AC50 is > 42 µM (inactive).
As for `Cc1cccc(N=Nc2ccc(N(C)C)cc2)c1`, the figure is > 42 µM (inactive).
The value for `O=C(O)c1ccc(S(=O)(=O)N2CCN(c3ccccn3)CC2)cc1` was > 42 µM (inactive).
The value for `CCOC(=O)C1CCN(CC(O)COc2ccc(C(C)(C)C)cc2)CC1` (stereo not given) was > 42 µM (inactive).
